Results as given in PubChem BioAssay AID1033 (Sanford-Burnham Center for Chemical Genomics, 2008).
Active and inactive are the calls of the source. No rule for the calls is given here.

Target: Chaperone protein DnaK (Escherichia coli (strain K12)) (UniProt P0A6Y8)
Assay: binders of DnaK substrate-binding domain, biophysical, NMR, chaperone (AID 1033)
Details: Purified DnaK SBD, NMR ligand binding

Chaperone protein DnaK (Escherichia coli (strain K12)), sequence (P0A6Y8 whole entry, looked up, the tested form may be a part): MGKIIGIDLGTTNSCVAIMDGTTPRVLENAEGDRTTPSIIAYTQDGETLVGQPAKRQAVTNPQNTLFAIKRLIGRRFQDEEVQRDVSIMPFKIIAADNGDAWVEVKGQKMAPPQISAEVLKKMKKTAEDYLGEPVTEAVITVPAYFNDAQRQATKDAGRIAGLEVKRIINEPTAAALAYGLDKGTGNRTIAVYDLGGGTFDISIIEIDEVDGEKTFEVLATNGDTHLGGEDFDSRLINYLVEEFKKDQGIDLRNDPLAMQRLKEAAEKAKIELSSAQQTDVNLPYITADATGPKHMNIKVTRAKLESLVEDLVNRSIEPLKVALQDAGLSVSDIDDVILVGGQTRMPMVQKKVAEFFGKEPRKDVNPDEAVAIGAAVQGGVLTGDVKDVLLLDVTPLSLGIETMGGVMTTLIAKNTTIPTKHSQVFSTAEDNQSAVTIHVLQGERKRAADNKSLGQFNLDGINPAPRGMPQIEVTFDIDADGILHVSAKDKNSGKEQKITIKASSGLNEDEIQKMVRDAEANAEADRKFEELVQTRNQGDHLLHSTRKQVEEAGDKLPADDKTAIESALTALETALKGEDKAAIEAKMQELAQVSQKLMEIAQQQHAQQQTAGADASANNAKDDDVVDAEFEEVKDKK

SMILES | Kd
OCC1CN(Cc2ccccc2)CCO1 (stereo unspecified) | > 4 mM (inactive)
O=S(=O)(c1cccc2cccnc12)N1CCOCC1 | > 4 mM (inactive)
CN(C)c1ccc2c(=O)[nH][nH]c(=O)c2c1 | > 4 mM (inactive)
N=c1n(N)c2ccccc2n1CCO | > 4 mM (inactive)
Cc1ncc(C[n+]2csc3ccccc32)c(N)n1 | > 4 mM (inactive)
C[N+](C)(C)CC(=O)[O-] | > 4 mM (inactive)
Cn1ncc(C(=O)NC2CCCCC2)c1Cl | > 4 mM (inactive)
Nc1ncnc2nc(SCCN3CCCCC3)[nH]c12 | > 4 mM (inactive)
CN1CCN(c2cc(=O)n(C)c(=O)[nH]2)CC1 | > 4 mM (inactive)
CC(C)CNc1cc(=O)n(C)c(=O)n1C | > 4 mM (inactive)
NC(=O)c1oc2ccccc2c1N | > 4 mM (inactive)
CC(=O)NN1C(=O)c2cccc3cccc(c23)C1=O | > 4 mM (inactive)
CCC(C)C(NC)C(=O)O (stereo unspecified) | > 4 mM (inactive)
COc1cccc2c(=O)n(CC(N)=O)ccc12 | > 4 mM (inactive)
CC(=O)O[C@H]1CC[C@@]2(C)C(=CCC3C2CC[C@@]2(C)C3CC[C@@H]2C(C)CCCC(C)C)C1 (stereo partly specified) | > 4 mM (inactive)
Cc1ccc2c(c1)CCCN2C(=O)c1c(C)noc1C | > 4 mM (inactive)
O=C(O)C1Cc2c([nH]c3ccccc23)CN1 (stereo unspecified) | > 4 mM (inactive)
O=Cc1c(N2CCOCC2)nc2ccccn2c1=O | > 4 mM (inactive)
CCCCCCCCCCCCCCCCCCOCC(O)CO (stereo unspecified) | > 4 mM (inactive)
COc1c(OC)c2occc2c2oc(=O)ccc12 | > 4 mM (inactive)
O=C(Nc1ccon1)c1csc2c1CCCC2 | > 4 mM (inactive)
Cc1noc(C)c1C(=O)N1CCC(Cc2ccccc2)CC1 | > 4 mM (inactive)
Nc1nnc(SCc2cccnc2)s1 | > 4 mM (inactive)
O=C(NC1=NCCS1)c1ccc(Cl)s1 | > 4 mM (inactive)
c1ccc(CCNc2ncnc3nc[nH]c23)cc1 | > 4 mM (inactive)

SMILES | Kd
CC(=O)Nc1cccc(NC(=O)c2ccco2)c1 | > 4 mM (inactive)
O=c1cnnc(N2CCCCC2)[nH]1 | > 4 mM (inactive)
CC(C)NC(=S)N1CCN(S(C)(=O)=O)CC1 | > 4 mM (inactive)
Cc1ccccc1NC(=O)C1CC(=O)N=C(N)S1 (stereo unspecified) | > 4 mM (inactive)
CCN1CCn2c1nc(N1CCOCC1)nc2=O | > 4 mM (inactive)
OC1CC2CCC1C2 (stereo unspecified) | > 4 mM (inactive)
OCC1Cc2ccccc2CN1 (stereo unspecified) | > 4 mM (inactive)
COc1ccc2c(c1)OC/C(=C/c1ccc(O)c(O)c1)C2=O | > 4 mM (inactive)
Cc1cc(NC(=O)c2ccc3c(c2)OCO3)no1 | > 4 mM (inactive)
Cc1cc(C(=O)NCc2cccs2)c(C)o1 | > 4 mM (inactive)
COc1ccccc1NC(=O)C1CCCCC1 | > 4 mM (inactive)
CC(=O)n1nc(-c2cccnc2)nc1N | > 4 mM (inactive)
O=C1C2CCCCC2C(=O)N1Cc1cccnc1 (stereo unspecified) | > 4 mM (inactive)
Cc1ccc(CO)o1 | > 4 mM (inactive)
COc1ccc2nc(NC(=O)c3cnccn3)sc2c1 | > 4 mM (inactive)
O=c1[nH]cc(N2CCCCC2)c(=O)[nH]1 | > 4 mM (inactive)
CC1(C)C(=O)C=C[C@@]2(C)C1CC(=O)[C@]1(C)C2CC[C@@]2(C)[C@H](c3ccoc3)OC(=O)[C@H]3O[C@]321 (stereo partly specified) | > 4 mM (inactive)
O=C(O)c1cccc(-n2cccc2)c1 | > 4 mM (inactive)
Nc1cccc2cccnc12 | > 4 mM (inactive)
NC(=O)CSc1nnc2ccc(-c3ccco3)nn12 | > 4 mM (inactive)
COC(=O)C[C@@H]1C2(C)C(=O)[C@@H](CC3=C4CC(O)O[C@@H](c5ccoc5)[C@]4(C)CCC32)[C@H](O)C1(C)C (stereo partly specified) | > 4 mM (inactive)
CCOC(=O)c1c(C)cc(OC)cc1O | > 4 mM (inactive)
CC(=O)c1c(C)n(O)c2ccc3nonc3c12 | > 4 mM (inactive)
O=C(O)C1=C[C@@H](O)[C@@H](O)[C@H](O)C1 | > 4 mM (inactive)
c1ccc(Cn2cccc2)nc1 | > 4 mM (inactive)

SMILES | Kd
CC(=O)Nc1ccc(N2CCOCC2)cc1 | > 4 mM (inactive)
CC1CCc2cc(F)ccc2N1C(=O)c1ccc(=O)[nH]n1 (stereo unspecified) | > 4 mM (inactive)
CC(C)Nc1nc2n(c(=O)n1)CCN2C(C)C | > 4 mM (inactive)
NS(=O)(=O)c1ccc(N=Cc2ccc[nH]2)cc1 | > 4 mM (inactive)
CN1CCN(c2ncnc3nc[nH]c23)CC1 | > 4 mM (inactive)
CC(=O)N1CCN(c2ccc(O)cc2)CC1 | > 4 mM (inactive)
Cc1cc(C)c(-c2cc(C(F)(F)F)no2)c(=O)[nH]1 | > 4 mM (inactive)
Nc1cccc(S(=O)(=O)N2CCOCC2)c1 | > 4 mM (inactive)
Cc1ccc(C(=O)NC2=NCCS2)o1 | > 4 mM (inactive)
Cn1[nH]c2nc3[nH]n(C)c(=O)c3c(-c3ccccc3)c2c1=O | > 4 mM (inactive)
Cc1nnc(SCc2ccccc2)[nH]c1=O | > 4 mM (inactive)
CN1CCC(NC(=O)c2c(F)cccc2Cl)CC1 | > 4 mM (inactive)
O=C(O)C1CNc2ccccc2O1 (stereo unspecified) | > 4 mM (inactive)
O=C1NC(=S)S/C1=C/c1ccncc1 | > 4 mM (inactive)
OCc1ccc(N2CCOCC2)nc1 | > 4 mM (inactive)
Clc1ncnc2[nH]ncc12 | > 4 mM (inactive)
COc1cc2c(cc1OC)[C@@H]1C(=O)c3ccc4c(c3O[C@@H]1CO2)C=CC(C)(C)O4 | > 4 mM (inactive)
CC(C)CC(=O)Nc1c[nH]c(=O)[nH]c1=O | > 4 mM (inactive)
CC(=O)Oc1cc2c(c(C)c1OC(C)=O)CC=C1[C@@]2(C)CC[C@@]2(C)C3C[C@](C)(C(=O)O)CC[C@]3(C)CC[C@]12C (stereo partly specified) | > 4 mM (inactive)
O=C1CC(c2ccccc2)n2ncnc2N1 (stereo unspecified) | > 4 mM (inactive)
Cn1c(=O)c2c(ncn2CCN)n(C)c1=O | > 4 mM (inactive)
CC(=O)Nc1ccc(-c2cn3ccsc3n2)cc1 | > 4 mM (inactive)
O=C1C=CC2=C3c4cc(O)c(O)cc4CC3(O)COC2=C1O (stereo unspecified) | > 4 mM (inactive)
Nc1nc(-c2cccnc2)nn1C(=O)Cc1ccccc1 | > 4 mM (inactive)
C=C1[C@H]2CC[C@@]3(C)[C@H](c4ccoc4)OC(=O)C[C@]13O[C@H]1C[C@H](O)C(C)(C)[C@H](CC(=O)OC)[C@]12C | > 4 mM (inactive)

SMILES | Kd
O=C(c1ccco1)N1CCN(Cc2cccc(F)c2)CC1 | > 4 mM (inactive)
Cc1[nH]n(-c2ccccc2)c(=O)c1[N+](=O)[O-] | > 4 mM (inactive)
O=C(O)C1CCCN1Cc1c[nH]c2ccccc12 (stereo unspecified) | > 4 mM (inactive)
CCN(CC)C(=O)c1n[nH]c(=O)c2ccccc12 | > 4 mM (inactive)
Brc1ccc(-c2nc(-c3ccncc3)no2)o1 | > 4 mM (inactive)
COC(=O)c1cnccc1C(F)(F)F | > 4 mM (inactive)
Cc1cc(C(=O)Nc2cccnc2)cs1 | > 4 mM (inactive)
COc1cc2c(cc1O)CCNC2C (stereo unspecified) | > 4 mM (inactive)
O=C1NC(=O)/C(=C\c2ccco2)S1 | > 4 mM (inactive)
Nc1ccccc1OC(F)(F)F | > 4 mM (inactive)
COc1ccc(Cl)cc1NC(=O)c1ccco1 | > 4 mM (inactive)
CCSc1nc2ccccc2[nH]1 | > 4 mM (inactive)
Cc1cccc(OCc2nnc(N)s2)c1 | > 4 mM (inactive)
CNc1nc(SC)nc(N2CCOCC2)n1 | > 4 mM (inactive)
NC(=O)Cc1nc(-c2ccc(F)cc2)cs1 | > 4 mM (inactive)
Cc1ccc(C)n1-c1ccc(C(=O)N2CCOCC2)cc1 | > 4 mM (inactive)
O=C(Oc1ccc(-c2nnco2)cc1)N1CCCCC1 | > 4 mM (inactive)
COc1ccc(-c2cc(=O)c3ccccc3o2)cc1 | > 4 mM (inactive)
Oc1ccc(-c2n[nH]c(=S)n2Cc2ccco2)cc1 | > 4 mM (inactive)
COC(=O)c1c(SC)nc(-c2ccccc2)[nH]c1=O | > 4 mM (inactive)
COc1cc(OC)c2c(OC)c(-c3ccc4c(c3)OCO4)c(=O)oc2c1 | > 4 mM (inactive)
CC(=O)c1cccc(NC(=O)Nc2c(C)nn(C)c2C)c1 | > 4 mM (inactive)
CC(=O)c1ccc2c(c1)OCCO2 | > 4 mM (inactive)
O=C1CSC(=Nc2ccccc2[N+](=O)[O-])N1 | > 4 mM (inactive)
CC(=O)Nc1nc(-c2cccs2)cs1 | > 4 mM (inactive)

SMILES | Kd
Cc1nc(-c2ccc(C(=O)O)s2)cs1 | > 4 mM (inactive)
NCc1ccc2sccc2c1 | > 4 mM (inactive)
COCc1nn2c(N)c(C#N)cnc2c1-c1ccccc1 | > 4 mM (inactive)
OC1CSc2ncnn2C1 (stereo unspecified) | > 4 mM (inactive)
OCCNC(=S)Nc1ccc(F)cc1 | > 4 mM (inactive)
OC[C@H]1O[C@@H](O[C@H]2[C@H](O)[C@@H](O)[C@@H](O)O[C@@H]2CO)[C@H](O)[C@@H](O)[C@@H]1O | > 4 mM (inactive)
OCC(O)C(O)C(O)CO (stereo unspecified) | > 4 mM (inactive)
CC(=O)O[C@@H]1CC2C(C)(CC[C@H](O)C2(C)C)C2CC[C@]3(C)C(=CC(=O)O[C@H]3c3ccoc3)C21C (stereo partly specified) | > 4 mM (inactive)
COc1ccc(S(=O)(=O)N2CCC(C(N)=O)CC2)cc1 | > 4 mM (inactive)
Oc1ccccc1N1CCCC1 | > 4 mM (inactive)
C=CCn1c(=S)[nH]c2ccc(Br)cc2c1=O | > 4 mM (inactive)
N#Cc1cc(-c2ccccc2)oc1N | > 4 mM (inactive)
Clc1ccccc1OCc1nc(-c2ccccn2)no1 | > 4 mM (inactive)
N#CCSc1nc2ccccc2c(=O)n1-c1ccccc1 | > 4 mM (inactive)
c1cncc(C2CCCCN2)c1 (stereo unspecified) | > 4 mM (inactive)
O=C(Cn1cncn1)c1ccc(F)c(F)c1 | > 4 mM (inactive)
CCOC(=O)c1csc(N)n1 | > 4 mM (inactive)
Cc1cc(C)n2nc(C(=O)NCc3ccco3)nc2n1 | > 4 mM (inactive)
NC(=O)CSc1nc2ccccc2[nH]1 | > 4 mM (inactive)
NC(=O)c1ccsc1NC(=O)c1ccco1 | > 4 mM (inactive)
O=C(O)c1csc(-c2ccccc2)n1 | > 4 mM (inactive)
